Reference: patent US20210290576A1, “STRUCTURALLY MODIFIED FATTY ACIDS FOR IMPROVING GLYCEMIC CONTROL AND TREATING INFLAMMATORY BOWEL DISEASE” (NORTHSEA THERAPEUTICS B.V., priority 2018, published 2021)
“Also recorded” adds a separate entry of the source.

What was measured:
[1] = tested on: IL6, IL1b, S100A8, TNFα, Reg3g, IL17a mRNA; assay: Colonic mRNA levels of proinflammatory cytokines and biomarkers in DSS-induced colitis mice (real-time PCR); assay type: in vivo, C56BL/6J mouse; settings: 126 and 252 mg/kg per day; normalized to HPRT; vs untreated mice
Experimental: The C56BL/6J mouse is a strain susceptible to DSS-induced colitis. To evaluate the efficacy and dosage of Compound B in treatment of DSS-induced colitis, inflammation was induced in 30 9-week old C56BL/6J mice by adding 1.5% DSS to the drinking water for 7 days. The mice were fed a standard chow diet that consisted of 30 weight percent wheat. The mice were divided into three groups of 10, and for each day of DSS administration each group was administered via oral gavage either (1) 100 μL corn oil per day (Control), (2) 126 mg/kg Compound B (dissolved in 100 μL corn oil) per day (“Compound B—Low” or “Compound B—L”), or (3) 252 mg/kg Compound B (dissolved in 100 μL corn oil) per day (“Compound B—High” or “Compound B—H”). Following the 7-day period of DSS induction, mice were sacrificed and their intestinal tissue was used for histopathological and gene expression analysis.
To evaluate the effect of treatment with Compound B on the levels of proinflammatory cytokines and biomarkers, total RNA was extracted from small and large intestinal tissue samples (>100 mg). cDNA was synthesized by reverse transcription and analyzed by real-time PCR. Results were normalized to the level of the housekeeping gene hypoxanthine guanine phosphoribosyltransferase (HPRT). The relative mRNA expression of the tested gene relative to HPRT expression was calculated using the 2^−ΔΔCt method as described in Pickert et al., J. Exp. Med., 2009, 206:1465-1472. Interleukin 6 (IL6), IL1b, calgranulin-A (S100A8), and tumor necrosis factor α (TNFα) have been implicated as mediators of IBD, including both ulcerative colitis and Crohn's disease. IL6, IL1b, and calgranulin-A are prominently expressed in inflammatory macrophages. IL22-dependent regenerating islet-derived 3 gamma (Reg3g) is induced in response to inflammation in epithelial cells. IL17 is secreted by Th17 T helper cells and innate lymphoid cells type 3 (ILC3).

[2] = tested on: B6.V-Lepob/Jrj mice (ob/ob), T2DM rodent model; assay: Glucose tolerance (0-120 mins) after 28-day treatment in ob/ob mice; assay type: in vivo; settings: 28 days; for glucose tolerance: 2 g/kg oral glucose load
Experimental: This study was carried out to assess the effects of chronic treatment with Compound B or Compound A on glucose tolerance in a T2DM rodent model.
For assessing the effects of Compound B, B6.V-Lepob/Jrj mice (ob/ob) mice were administered Compound B at one of 2 doses, 125 and 250 mg/kg for 28 days. […] After the oral glucose load, plasma glucose was measured at multiple time points from and AUC (0-120 mins) for glucose was calculated.

active GLP-1 = assay: Active GLP-1 during an oral glucose tolerance test (OGTT) and at 24 h in lean male SPD rats; assay type: in vivo, Sprague-Dawley (SPD) rats; settings: in combination with DPP4 inhibitor (linagliptin); Compound A 74 mg/kg, Compound B 84 mg/kg, two oral doses
Experimental: Evaluation of the Acute Effects of Compound a and Compound B Upon Active GLP-1 wconcentrations during an oral glucose tolerance test (OGTT) and at 24 h in lean male SPD Rats
To establish the acute effects of oral administration of Compound A and Compound B upon active GLP-1 and insulin concentrations, lean (about 300 g) male Sprague-Dawley (SPD) rats were divided into groups (n=6-8) and fed 74 and 84 mg/kg body weight of Compound A or Compound B respectively, either with or without concurrent administration of a dipeptidyl peptidase 4 (DPP-4) inhibitor 60 minutes prior to an oral glucose tolerance test (OGTT) as outlined below. Parallel groups receiving either corn oil alone (corn oil+vehicle, n=10) or corn oil and a DPP-4 inhibitor (“DPP-4 i”) (corn oil+(DPP-4 i), n=10) were included as controls. The DPP-4 inhibitor was linagliptin.
A second oral dose of 74 and 84 mg/kg bodyweight of Compound A or Compound B respectively was administered at 240 minutes and ad lib feeding was initiated. A second dose of DPP-4 inhibitor was administered at 480 mins prior to lights out. Blood samples were collected at 24 h for measurement of active GLP-1 and insulin. All values are mean, figures depict mean values (SEM).

atherogenic lipids = settings: APOE*3.CETP mice; cited from earlier work
[3] = 250 mg/kg once daily oral gavage

CC/C=C\C/C=C\C/C=C\C/C=C\C/C=C\CCCCSC(CC)(CC)C(=O)O [Compound B, 2-ethyl-2-((5Z,8Z,11 Z,14Z,17Z)-icosa-5,8,11,14,17-pentaenylthio)butanoic acid]
relative colonic mRNA level of IL1b [1]: reduced colonic expression; also recorded: dose-dependent decrease
relative colonic mRNA level of IL6 [1]: reduced colonic expression; also recorded: dose-dependent decrease
relative colonic mRNA level of IL17a [1]: lack of change
relative colonic mRNA level of Reg3g [1]: reduced colonic expression; also recorded: dose-dependent decrease
relative colonic mRNA level of S100A8 [1]: reduced colonic expression; also recorded: dose-dependent decrease
relative colonic mRNA level of TNFα [1]: reduced colonic expression; also recorded: dose-dependent decrease
glucose tolerance ([2]; 125 mg/kg once daily oral gavage): improved glucose tolerance
AUC (0-120 mins) glucose [2, 3]: potent and highly significant (p<0.001) reduction
glucose tolerance [2, 3]: improved glucose tolerance
active GLP-1 concentrations at 24 h versus corn oil+vehicle (active GLP-1): significantly (p<0.01) increased
atherogenic lipids (atherogenic lipids): significantly reduce atherogenic lipids
